Experimental data reported in patent publication US20250179000A1 (Sanford Burnham Prebys Medical Discovery Institute, priority 2021, published 2025).

Tests used:
[1] = molecular target: T1, Rat mGlu2 (Rattus norvegicus, UniProt P31421); assay: mGlu receptor in vitro assay, thallium flux through GIRK channels, rat mGlu2; assay type: cell-based; conditions: PAM potency with EC20 glutamate
T1 construct: expressed in transfected cells; host or cells: HEK-293 co-expressing GIRK channels
Protocol: (§1) Human Embryonic Kidney (HEK-293) cell lines co-expressing rat mGlu receptors 2, 3, 4, 6, 7 or 8 and G protein-coupled inwardly-rectifying potassium (GIRK) channels were grown in Growth Media containing 45% DMEM, 45% F-12, 10% FBS, 20 mM HEPES, 2 mM L-glutamine, antibiotic/antimycotic, non-essential amino acids, 700 μg/mL G418, and 0.6 μg/ml puromycin at 37° C. in the presence of 5% CO2. […] All cell culture reagents were purchased from Invitrogen Corp. (Carlsbad, CA) unless otherwise noted. Calcium assays were used to assess activity of compounds at mGlu1 and mGlu5, as previously described in Engers et al (J. Med. Chem. 2009, 52, 4115-4118). Calcium assays at mGlu3 were performed as described for mGlu5 with the exception that TREx293 mGlu3 Gα15 cells were treated with tetracycline at 20 ng/mL for 20 h prior to assay.
(§2) Compound activity at the group II (mGlu2 and mGlu3) and group III (mGlu4, mGlu6, mGlu7, and mGlu8) was assessed using thallium flux through GIRK channels, a method that has been described in detail. Briefly, cells were plated into 384-well, black-walled, clear-bottomed poly-D-lysine-coated plates at a density of 15,000 cells/20 μL/well in DMEM containing 10% dialyzed FBS, 20 mM HEPES, and 100 units/mL penicillin/streptomycin (assay media). Plated cells were incubated overnight at 37° C. in the presence of 5% CO2. The following day, the medium was exchanged from the cells to assay buffer [Hanks' balanced salt solution (Invitrogen) containing 20 mM HEPES, pH 7.3] using an ELX405 microplate washer (BioTek), leaving 20 μL/well, followed by the addition of 20 μL/well FluoZin2-AM (330 nM final concentration) indicator dye (Invitrogen; prepared as a stock in DMSO and mixed in a 1:1 ratio with Pluronic acid F-127) in assay buffer. Cells were incubated for 1 h at room temperature, and the dye exchanged to assay buffer using an ELX405, leaving 20 μL/well. Test compounds were diluted to 2 times their final desired concentration in assay buffer (0.3% DMSO final concentration). Agonists were diluted in thallium buffer [125 mM sodium bicarbonate (added fresh the morning of the experiment), 1 mM magnesium sulfate, 1.8 mM calcium sulfate, 5 mM glucose, 12 mM thallium sulfate, and 10 mM HEPES, pH 7.3] at 5 times the final concentration to be assayed. Cell plates and compound plates were loaded onto a kinetic imaging plate reader (FDSS 6000 or 7000; Hamamatsu Corporation, Bridgewater, NJ). Appropriate baseline readings were taken (10 images at 1 Hz; excitation, 470±20 nm; emission, 540±30 nm) and test compounds were added in a 20 μL volume and incubated for approximately 2.5 min before the addition of 10 μL of thallium buffer with or without agonist. After the addition of agonist, data were collected for approximately an additional 2.5 min. Data were analyzed using Excel (Microsoft Corp, Redmond, WA). The slope of the fluorescence increase beginning 5 s after thallium/agonist addition and ending 15 s after thallium/agonist addition was calculated, corrected to vehicle and maximal agonist control slope values, and plotted in using either XLfit (ID Business Solutions Ltd) or Prism software (GraphPad Software, San Diego, CA) to generate concentration-response curves. Potencies were calculated from fits using a four-point parameter logistic equation. For concentration-response curve experiments, compounds were serially diluted 1:3 into 10-point concentration response curves and were transferred to daughter plates using an Echo acoustic plate reformatter (Labcyte, Sunnyvale, CA). Test compounds were applied and followed by EC20 concentrations of glutamate.

[2] = molecular target: T2, Rat mGlu3 (Rattus norvegicus, UniProt P31422); assay: mGlu receptor in vitro assay (thallium flux through GIRK channels / calcium assay), rat mGlu3; assay type: cell-based; conditions: PAM potency with EC20 glutamate
T2 construct: expressed in transfected cells; host or cells: HEK-293 co-expressing GIRK channels
T2 sequence (P31422 23-879): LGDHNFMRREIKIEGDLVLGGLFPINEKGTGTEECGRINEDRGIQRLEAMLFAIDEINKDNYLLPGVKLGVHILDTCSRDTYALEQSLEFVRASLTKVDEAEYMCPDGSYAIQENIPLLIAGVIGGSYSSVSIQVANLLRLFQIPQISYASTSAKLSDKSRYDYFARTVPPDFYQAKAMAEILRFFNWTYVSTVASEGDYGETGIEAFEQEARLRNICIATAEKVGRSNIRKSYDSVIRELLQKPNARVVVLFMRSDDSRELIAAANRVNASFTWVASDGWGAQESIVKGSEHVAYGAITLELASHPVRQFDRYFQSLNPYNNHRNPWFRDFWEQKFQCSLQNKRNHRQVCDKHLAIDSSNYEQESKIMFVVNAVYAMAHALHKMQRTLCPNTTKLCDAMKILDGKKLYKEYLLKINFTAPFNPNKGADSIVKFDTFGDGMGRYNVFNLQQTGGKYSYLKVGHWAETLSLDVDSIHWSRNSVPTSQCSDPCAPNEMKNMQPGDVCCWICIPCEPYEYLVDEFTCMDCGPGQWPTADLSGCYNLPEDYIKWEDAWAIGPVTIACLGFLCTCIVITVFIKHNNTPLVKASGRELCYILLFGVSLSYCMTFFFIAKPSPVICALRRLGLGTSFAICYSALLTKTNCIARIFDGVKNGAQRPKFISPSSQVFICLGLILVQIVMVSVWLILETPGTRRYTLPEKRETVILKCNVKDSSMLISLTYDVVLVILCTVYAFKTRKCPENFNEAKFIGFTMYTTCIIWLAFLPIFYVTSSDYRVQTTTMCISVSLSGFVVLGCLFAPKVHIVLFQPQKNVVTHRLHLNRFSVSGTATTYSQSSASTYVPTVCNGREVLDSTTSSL
Protocol: as §1, §2

T1 sequence (P31421 19-872): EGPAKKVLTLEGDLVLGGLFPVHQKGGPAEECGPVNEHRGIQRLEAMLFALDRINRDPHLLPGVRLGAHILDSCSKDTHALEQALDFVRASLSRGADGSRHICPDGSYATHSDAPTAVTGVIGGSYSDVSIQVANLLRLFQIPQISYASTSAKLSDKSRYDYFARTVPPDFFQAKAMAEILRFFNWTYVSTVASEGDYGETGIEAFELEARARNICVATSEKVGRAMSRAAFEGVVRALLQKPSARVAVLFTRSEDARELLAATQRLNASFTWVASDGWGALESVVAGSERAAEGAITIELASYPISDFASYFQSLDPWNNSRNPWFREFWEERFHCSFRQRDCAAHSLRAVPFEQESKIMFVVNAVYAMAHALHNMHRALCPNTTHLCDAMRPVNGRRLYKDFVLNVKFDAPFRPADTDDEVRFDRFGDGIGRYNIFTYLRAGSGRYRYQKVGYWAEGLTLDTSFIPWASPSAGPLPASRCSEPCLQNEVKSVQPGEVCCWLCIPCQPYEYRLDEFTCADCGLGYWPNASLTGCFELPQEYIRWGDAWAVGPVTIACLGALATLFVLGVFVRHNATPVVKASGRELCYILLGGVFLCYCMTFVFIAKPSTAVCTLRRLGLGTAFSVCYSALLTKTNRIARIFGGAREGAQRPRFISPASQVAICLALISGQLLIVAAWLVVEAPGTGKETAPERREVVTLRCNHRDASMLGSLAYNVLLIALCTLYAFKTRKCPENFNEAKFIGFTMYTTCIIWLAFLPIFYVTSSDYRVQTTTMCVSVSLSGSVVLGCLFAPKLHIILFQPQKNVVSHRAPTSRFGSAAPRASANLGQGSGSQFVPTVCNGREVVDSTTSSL

SMILES | EC50 [1] [nM] | EC50 [2] [nM]
COc1ccc(C(=O)O)cc1OCCOCCOc1ccc(C(=O)CC(C)(C)C)c(O)c1C [Example 1, 3-(2-(2-(4-(3,3-Dimethylbutanoyl)-3-hydroxy-2-methylphenoxy)ethoxy)ethoxy)-4-methoxybenzoic acid] | 18 | 52
CCCC(=O)c1ccc(OC/C=C/COc2ccc(C(=O)O)cc2OC)c(C)c1O [Example 6, (E)-4-((4-(4-Butyryl-3-hydroxy-2-methylphenoxy)but-2-en-1-yl)oxy)-3-methoxybenzoic acid] | 4 | 2590
CCCC(=O)c1ccc(OCCSCCOc2ccc(C(=O)O)cc2OC)c(C)c1O [Example 15, 4-{2-[2-(4-Butanoyl-3-hydroxy-2-methylphenoxy)ethylthio]ethoxy}-3-methoxybenzoic acid] | 18 | > 30000
Cc1c(OC/C=C/COc2ccc(C(=O)CC(C)(C)C)c(O)c2C)cccc1C(=O)O [Example 21, 3-{(2E)-4-[4-(3,3-Dimethylbutanoyl)-3-hydroxy-2-methylphenoxy]but-2-enyloxy}-2-methylbenzoic acid] | 38 | 73
COc1ccc(C(=O)O)cc1OCC(C)CCOc1ccc(C(=O)CC(C)(C)C)c(O)c1C (stereo not shown) [Example 32, 3-{4-[4-(3,3-Dimethylbutanoyl)-3-hydroxy-2-methylphenoxy]-2-methylbutoxy}-4-methoxybenzoic acid] | 127 | 200
CCCC(=O)c1ccc(OCC#CCOc2ccc(C(=O)O)cc2OC)c(C)c1O [Example 34, 4-[4-(4-Butanoyl-3-hydroxy-2-methylphenoxy)but-2-ynyloxy]-3-methoxybenzoic acid] | 31 | 1900
CCCC(=O)c1ccc(OCCS(=O)(=O)CCOc2ccc(C(=O)O)c(Cl)c2)c(C)c1O [Example 37, 4-(2-{[2-(4-Butanoyl-3-hydroxy-2-methylphenoxy)ethyl]sulfonyl}ethoxy)-2-chlorobenzoic acid] | > 10000 | > 30000
CCCC(=O)c1ccc(OCCS(=O)(=O)CCOc2cccc(C(=O)O)c2C)c(C)c1O [Example 38, 3-(2-{[2-(4-Butanoyl-3-hydroxy-2-methylphenoxy)ethyl]sulfonyl}ethoxy)-2-methylbenzoic acid] | > 10000 | > 30000
CCCC(=O)c1ccc(OCC[S+]([O-])CCOc2cccc(C(=O)O)c2C)c(C)c1O (stereo not shown) [Example 39, 3-(2-{[2-(4-Butanoyl-3-hydroxy-2-methylphenoxy)ethyl]sulfinyl}ethoxy)-2-methylbenzoic acid] | > 10000 | > 30000
CCCC(=O)c1ccc(OCC[S+]([O-])CCOc2ccc(C(=O)O)c(Cl)c2)c(C)c1O (stereo not shown) [Example 40, 4-(2-{[2-(4-Butanoyl-3-hydroxy-2-methylphenoxy)ethyl]sulfinyl}ethoxy)-2-chlorobenzoic acid] | 591 | > 30000
CCCC(=O)c1ccc(OCC#CCOc2ccc(C(=O)O)c(Cl)c2)c(C)c1O [Example 43, 4-[4-(4-Butanoyl-3-hydroxy-2-methylphenoxy)but-2-ynyloxy]-2-chlorobenzoic acid] | 33 | > 10000
Cc1c(OCCCCCOc2ccc(F)c(C(=O)O)c2)ccc(C(=O)CC(C)C)c1O [Example 47, 2-Fluoro-5-{5-[3-hydroxy-2-methyl-4-(3-methylbutanoyl)phenoxy]pentyloxy}benzoic acid] | 113 | 2040
CCCC(=O)c1ccc(OCCCCCOc2ccc(F)c(C(=O)O)c2)c(C)c1O [Example 48, 5-[5-(4-Butanoyl-3-hydroxy-2-methylphenoxy)pentyloxy]-2-fluorobenzoic acid] | 39 | > 10000
CCCCC(=O)c1ccc(OCCCCCOc2cccc(C(=O)O)c2C)c(C)c1O [Example 49, 3-[5-(3Hydroxy-2-methyl-4-pentanoylphenoxy)pentyloxy]-2-methylbenzoic acid] | 426 | > 10000
CCCC(=O)c1ccc(OCCCCCCOc2cccc(C(=O)O)c2C)c(C)c1O [Example 55, 3-[6-(4-Butanoyl-3-hydroxy-2-methylphenoxy)hexyloxy]-2-methylbenzoic acid] | 182 | 1170
Cc1c(OCc2cccc(-c3cccc(S(N)(=O)=O)c3)c2)ccc(C(=O)CC(C)(C)C)c1O [Example 163, 3′-((4-(3,3-Dimethylbutanoyl)-3-hydroxy-2-methylphenoxy)methyl)-[1,1′-biphenyl]-3-sulfonamide] | 1360 | > 30000
Cc1c(SCc2cccc(-c3cccc(C(=O)O)c3)c2)ccc(C(=O)CC(C)(C)C)c1O [Example 165, 3′-(((4-(3,3-Dimethylbutanoyl)-3-hydroxy-2-methylphenyl)thio)methyl)-[1,1′-biphenyl]-3-carboxylic acid] | 337 | 2530
Cc1c(OCc2cccc(-c3cccc(C(=O)O)c3)c2)ccc(C(=O)c2ccccc2)c1O [compound 66, 3′-((4-Benzoyl-3-hydroxy-2-methylphenoxy)methyl)-[1,1′-biphenyl]-3-carboxylic acid] | 769 | 2280
Cc1c(OCc2cnc(-c3cccc(C(=O)O)c3)cn2)ccc(C(=O)c2ccccc2)c1O [compound 67, 3-(5-((4-Benzoyl-3-hydroxy-2-methylphenoxy)methyl)pyrazin-2-yl)benzoic acid] | 1800 | 625
Cc1c(OCc2cccc(-c3cccc(C(=O)O)c3)c2)ccc(C(=O)C2CC2)c1O [compound 68, 3′-((4-(Cyclopropanecarbonyl)-3-hydroxy-2-methylphenoxy)methyl)-[1,1′-biphenyl]-3-carboxylic acid] | 186 | 3730
Cc1c(OCc2cnc(-c3cccc(C(=O)O)c3)cn2)ccc(C(=O)C2CC2)c1O [compound 70, 3-(5-((4-(Cyclopropanecarbonyl)-3-hydroxy-2-methylphenoxy)methyl)pyrazin-2-yl)benzoic acid] | 824 | 2550
Cc1c(SCCCCOc2cccc(C(=O)O)c2)ccc(C(=O)CC(C)(C)C)c1O [compound 83] | 549 | 3290
Cc1c(OCCCCNc2cccc(C(=O)O)c2)ccc(C(=O)CC(C)(C)C)c1O [compound 85, 3-((4-(4-(3,3-Dimethylbutanoyl)-3-hydroxy-2-methylphenoxy)butyl)amino)benzoic acid] | 128 | 810
Cc1nc(-c2cccc(-c3cnc(COc4ccc(C(=O)CC(C)(C)C)c(O)c4C)cn3)c2)no1 [compound 86, 1-(2-Hydroxy-3-methyl-4-((5-(3-(5-methyl-1,2,4-oxadiazol-3-yl)phenyl)pyrazin-2-yl)methoxy)phenyl)-3,3-dimethylbutan-1-one] | > 30000 | > 10000
COc1ccc(NC(=O)NS(C)(=O)=O)cc1OCCCCOc1ccc(C(=O)CC(C)(C)C)c(O)c1C [compound 87, N-((3-(4-(4-(3,3-dimethylbutanoyl)-3-hydroxy-2-methylphenoxy)butoxy)-4-methoxyphenyl)carbamoyl)methanesulfonamide] | 1320 | 2390
Cc1c(OCc2cccc(-c3cccc(NC(=O)NS(C)(=O)=O)c3)c2)ccc(C(=O)CC(C)(C)C)c1O [compound 88, N-((3′-((4-(3,3-Dimethylbutanoyl)-3-hydroxy-2-methylphenoxy)methyl)-[1,1′-biphenyl]-3-yl)carbamoyl)methanesulfonamide] | 1530 | > 10000
